Laboratory results taken from patent US20260263584A1, “Modulating the Innate Immunity of RNA” (priority 2023, published 2026).

Tested on: Hela cells
Format: cell-based, human

Cn1c(=O)n(C2CCC(=O)NC2=O)c2cccc(C#CCOC3CCN(C[C@H]4CC[C@H](n5cc(NC(=O)c6cnn7ccc(N8C[C@H]9C[C@@H]8CO9)nc67)c(C(F)F)n5)CC4)CC3)c21 (stereo partly drawn) [PF-07911620, N-{3-(difluoromethyl)-1-[(1S,4R)-4-({4-[(3-{1-[(3S)-2,6-dioxopiperidin-3-yl]-3-methyl-2-oxo-2,3-dihydro-1H-benzimidazol-4-yl}prop-2-yn-1-yl)oxy]piperidin-1-yl}methyl)cyclohexyl]-1H-pyrazol-4-yl}-5-[(1R,4R)-2-oxa-5-azabicyclo[2,2,1]heptan-5-yl]pyrazolo[1,5-a]pyrimidine-3-carboxamide]
frequency of HA-positive cells, higher than vehicle controls: 5.5 fold
